Assay results from US8188102B2, “Amide derivative for inhibiting the growth of cancer cells” (Hanmi Holdings Co., Ltd., priority 2007, dated 2012).

Columns and labels:
[1] = tested on: SK-Br3 breast cancer cell line; test: Cancer cell growth inhibition, SK-Br3 (SRB); settings: Homo sapiens, SK-BR-3, 72 h, read-out: ID50 (nM) SK-Br3
[2] = tested on: SW-620 colon/rectal cancer cell line; test: Cancer cell growth inhibition, SW-620 (SRB); settings: Homo sapiens, SW-620, 72 h, read-out: IC50 (nM) SW-620
[3] = tested on: A431 skin cancer cell line; test: Cancer cell growth inhibition, A431 (SRB); settings: Homo sapiens, A-431, 72 h, read-out: ID50 (nM) A431
[4] = tested on: H1975 lung cancer cell line; test: Cancer cell growth inhibition, H1975 (celltiter); settings: Homo sapiens, NCI-H1975, 48 h, read-out: IC50 (nM) H1975

SMILES | IC50 [1] [nM] | IC50 [2] [nM] | IC50 [3] [nM] | IC50 [4] [nM]
C=CC(=O)N1CC(Oc2cc3c(Nc4ccc(Cl)c(Cl)c4F)ncnc3cc2OC)C1 [Example 24, 1-(3-(4-(3,4-dichloro-2-fluorophenylamino)-7-methoxyquinazolin-6-yloxy)azetidin-1-yl)pro-2-pen-1-one] | 0.6 | > 5000 |  | 
C=CC(=O)N1CC[C@H](Oc2cc3c(Nc4ccc(Cl)c(Cl)c4F)ncnc3cc2OC)C1 [Example 8, 1-((3S)-3-(4-(3,4-dichloro-2-fluorophenylamino)-7-methoxyquinazolin-6-yloxy)pyrrolidin-1-yl)pro-2-pen-1-one] |  | > 5000 |  | 
COc1cc2ncnc(Nc3ccc(F)c(Cl)c3F)c2cc1OC1CN(C(=O)/C=C\Cl)C1 [Example 32, (Z)-3-chloro-1-(3-(4-(3-chloro-2,4-difluorophenylamino)-7-methoxyquinazolin-6-yloxy)azetidin-1-yl)pro-2-pen-1-one] | 2.2 |  | 2.4 | 19
C=CC(=O)N1CCC(Oc2cc3c(Nc4cccc(Cl)c4)ncnc3cc2OC)CC1 [Example 43, 1-(4-(4-(3-chlorophenylamino)-7-methoxyquinazolin-6-yloxy)piperidin-1-yl)pro-2-pen-1-one] | 0.7 | > 5000 |  | 
C=C(CN1CCOCC1)C(=O)N1CCC(Oc2cc3c(Nc4ccc(F)c(Cl)c4F)ncnc3cc2OC)CC1 [Example 110, 1-(4-(4-(3-chloro-2,4-difluorophenylamino)-7-methoxyquinazolin-6-yloxy)piperidin-1-yl)-2-(morpholinomethyl)prop-2-en-1-one] | 30 |  | 10 | 
C=CC(=O)N1CCC(Oc2cc3c(NCc4cccc(Cl)c4)ncnc3cc2OC)CC1 [Example 72, 1-(4-(4-(3-chlorobenzylamino)-7-methoxyquinazolin-6-yloxy)piperidin-1-yl)pro-2-pen-1-one] | 20 |  | 61 | 
COc1cc2ncnc(Nc3cccc(Cl)c3F)c2cc1OC1CCN(C(=O)CO)CC1 [Ex 1*] | 293 |  | 39 | > 1000
C=CC(=O)N1CCC(Oc2cc3c(Nc4cccc(Cl)c4C)ncnc3cc2OC)CC1 [Example 63, 1-(4-(4-(3-chloro-2-methylphenylamino)-7-methoxyquinazolin-6-yloxy)piperidin-1-yl)pro-2-pen-1-one] | 1 |  | 9 | 
C=CC(=O)N1CC(Oc2cc3c(Nc4cccc(C#N)c4)ncnc3cc2OC)C1 [Example 27, 3-(6-(1-acryloylazetidin-3-yloxy)-7-methoxyquinazolin-4-ylamino)benzonitrile] | 3 |  | 17 | 
C=CC(=O)N1CC(Oc2cc3c(Nc4ccc(F)c(Cl)c4)ncnc3cc2OC)C1 [Example 25, 1-(3-(4-(3-chloro-4-fluorophenylamino)-7-methoxyquinazolin-6-yloxy)azetidin-1-yl)pro-2-pen-1-one] | 0.4 | > 5000 |  | 
COc1cc2ncnc(Nc3ccc(F)c(Cl)c3F)c2cc1OC1CCN(C(=O)/C=C\C(=O)O)CC1 [Example 85, (Z)-4-(4-(4-(3-chloro-2,4-difluorophenylamino)-7-methoxyquinazolin-6-yloxy)piperidin-1-yl)-4-oxobut-2-enoic acid] | 395 |  | 41 | 
COc1cc2ncnc(Nc3ccc(Cl)c(Cl)c3F)c2cc1OC1CCN(C(=O)/C=C/CN(C)C)CC1 [Example 99, (E)-1-(4-(4-(3,4-dichloro-2-fluorophenylamino)-7-methoxyquinazolin-6-yloxy)piperidin-1-yl)-4-(dimethylamino)but-2-en-1-one] | 39 |  | 165 | 
C=CC(=O)N1CC[C@H](Oc2cc3c(Nc4ccc(F)c(Cl)c4F)ncnc3cc2OC)C[C@H]1C(=O)NC(C)C [Example 124, (2S,4S)-1-acryloyl-4-(4-(3-chloro-2,4-difluorophenylamino)-7-methoxyquinazolin-6-yloxy)-N-isopropylpiperidin-2-carboxamide] | 2.8 |  | 7.5 | 
C=CC(=O)Nc1cccc(Nc2ncnc3cc(OC)c(OC4CCN(C(=O)C=C)CC4)cc23)c1 [Example 75, N-(3-(6-(1-acryloylpiperidin-4-yloxy)-7-methoxyquinazolin-4-ylamino)phenyl)acrylamide] | 50 |  | 400 | 
CN(C)C/C=C/C(=O)N1CC[C@H](Oc2ccc3ncnc(Nc4ccc(F)c(Cl)c4F)c3c2)C1 [Example 97, (E)-1-((3S)-3-(4-(3-chloro-2,4-difluorophenylamino)quinazolin-6-yloxy)pyrrolidin-1-yl)-4-(dimethylamino)but-2-en-1-one] | 94 |  | 25 | 

Other lines, results leading:

IC50 [1] [nM] | IC50 [2] [nM] | IC50 [3] [nM] | IC50 [4] [nM] | SMILES
40 | > 5000 | 80 |  | CS(=O)(=O)CCNCc1ccc(-c2ccc3ncnc(Nc4ccc(OCc5cccc(F)c5)c(Cl)c4)c3c2)o1 [Lapatinib, reference compound]
2.5 |  | 3.1 | 50 | C=C(NC(C)=O)C(=O)N1CC(Oc2cc3c(Nc4ccc(F)c(Cl)c4F)ncnc3cc2OC)C1 [Example 31, N-(3-(3-(4-(3-chloro-2,4-difluorophenylamino)-7-methoxyquinazolin-6-yloxy)azetidin-1-yl)-3-oxopro-1-en-2-yl)acetamide]
 | 2640 |  |  | CN(C)C/C=C/C(=O)Nc1cc2c(Nc3ccc(F)c(Cl)c3)ncnc2cc1O[C@H]1CCOC1 [BIBW2992, reference compound]
13 |  | 39 |  | COc1cc2ncnc(Nc3ccc(Cl)c(Cl)c3F)c2cc1OC1CCN(C(=O)/C=C/Cl)CC1 [Example 90, (E)-3-chloro-1-(4-(4-(3,4-dichloro-2-fluorophenylamino)-7-methoxyquinazolin-6-yloxy)piperidin-1-yl)prop-2-en-1-one]
1.7 |  | 65 |  | C=CC(=O)N1CCC(Oc2cc3c(Nc4ccccc4Cl)ncnc3cc2OC)CC1 [Example 69, 1-(4-(4-(2-chlorophenylamino)-7-methoxyquinazolin-6-yloxy)piperidin-1-yl)pro-2-pen-1-one]
11 |  | 142 |  | C=CC(=O)N1CCC(Oc2cc3c(Nc4cccc(N(C)C)c4)ncnc3cc2OC)CC1 [Example 64, 1-(4-(4-(3-(dimethylamino)phenylamino)-7-methoxyquinazolin-6-yloxy)piperidin-1-yl)pro-2-pen-1-one]
1300 |  | 37 |  | CC#CC(=O)N1CC[C@H](Oc2cc3c(Nc4ccc(F)c(Cl)c4F)ncnc3cc2OC)C1 [Example 3, 1-((3S)-3-(4-(3-chloro-2,4-difluorophenylamino)-7-methoxyquinazolin-6-yloxy)pyrrolidin-1-yl)but-2-yn-1-one]
1670 |  | 531 |  | C=CC(=O)N1CC[C@H](Oc2cc3c(Nc4cccc(Cl)c4F)ncnc3cc2OC)C1 [Example 6, 1-((3S)-3-(4-(3-chloro-2-fluorophenylamino)-7-methoxyquinazolin-6-yloxy)pyrrolidin-1-yl)pro-2-pen-1-one]
7 |  | 26 |  | C=CC(=O)N1CCC(Oc2cc3c(Nc4cccc(CCl)c4)ncnc3cc2OC)CC1 [Example 77, 1-(4-(4-(3-(chloromethyl)phenylamino)-7-methoxyquinazolin-6-yloxy)piperidin-1-yl)pro-2-pen-1-one]
